Laboratory results published in US20260306527A1, “PRMT INHIBITOR COMPOUNDS AND THE USES THEREOF” (Purdue Research Foundation, priority 2023, published 2026).
“Also recorded” adds a separate entry of the source.

Assays:
Type in all cases: biochemical
PRMT1 [1] = biological target: T1, PRMT1 (Homo sapiens, UniProt Q99873); assay: selectivity of YD1113/YD1290 on PRMT panel, PRMT1; conditions: vs YD1113
T1 construct: made in house
Method: (§1) The selectivity of compounds YD1113 and YD1290 on PRMTs were performed by Reaction Biology Corp.
(§2) Next, the selectivity of YD1113 was investigated on a panel of PRMTs at 10 μM.
(§3) After validating the benzyl urea moiety as an unconventional homocysteine mimic of SAH for PRMTs, it was hypothesized that incorporating the benzyl urea moiety into the original pan PRMT inhibitor II757 would build a potent bisubstrate inhibitor. […] To enable a stable tri-substitution, the sulfur atom with a nitrogen atom was replaced. YD1290 was synthesized following the reported methods 9, 15 and tested in a radioactivity assay for PRMTs (FIG. 6b).

PRMT3 = PRMT3 (Homo sapiens, UniProt O60678); assay: selectivity of YD1113/YD1290 on PRMT panel, PRMT3; conditions: vs YD1113
Sequence of PRMT3 (O60678 whole entry, species assumed): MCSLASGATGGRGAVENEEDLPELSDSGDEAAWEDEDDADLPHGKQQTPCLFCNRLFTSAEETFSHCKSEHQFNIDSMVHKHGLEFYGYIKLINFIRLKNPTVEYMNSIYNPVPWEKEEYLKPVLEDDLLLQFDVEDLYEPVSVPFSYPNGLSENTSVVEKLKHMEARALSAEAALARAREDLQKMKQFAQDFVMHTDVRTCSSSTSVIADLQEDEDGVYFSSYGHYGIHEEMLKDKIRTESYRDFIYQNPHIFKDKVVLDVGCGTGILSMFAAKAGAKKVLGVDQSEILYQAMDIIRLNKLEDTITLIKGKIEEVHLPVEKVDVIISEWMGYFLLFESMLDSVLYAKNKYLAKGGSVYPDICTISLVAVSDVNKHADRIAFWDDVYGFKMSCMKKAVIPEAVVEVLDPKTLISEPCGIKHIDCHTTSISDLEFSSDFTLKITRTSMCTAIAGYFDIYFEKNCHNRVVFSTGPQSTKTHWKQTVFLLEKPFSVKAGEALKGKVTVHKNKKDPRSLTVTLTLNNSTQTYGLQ
Method: as §1, §2, §3

PRMT4 = biological target: T2, PRMT4 (Homo sapiens, UniProt Q86X55); assay: selectivity of YD1113/YD1290 on PRMT panel, PRMT4
T2 sequence (Q86X55 1-608): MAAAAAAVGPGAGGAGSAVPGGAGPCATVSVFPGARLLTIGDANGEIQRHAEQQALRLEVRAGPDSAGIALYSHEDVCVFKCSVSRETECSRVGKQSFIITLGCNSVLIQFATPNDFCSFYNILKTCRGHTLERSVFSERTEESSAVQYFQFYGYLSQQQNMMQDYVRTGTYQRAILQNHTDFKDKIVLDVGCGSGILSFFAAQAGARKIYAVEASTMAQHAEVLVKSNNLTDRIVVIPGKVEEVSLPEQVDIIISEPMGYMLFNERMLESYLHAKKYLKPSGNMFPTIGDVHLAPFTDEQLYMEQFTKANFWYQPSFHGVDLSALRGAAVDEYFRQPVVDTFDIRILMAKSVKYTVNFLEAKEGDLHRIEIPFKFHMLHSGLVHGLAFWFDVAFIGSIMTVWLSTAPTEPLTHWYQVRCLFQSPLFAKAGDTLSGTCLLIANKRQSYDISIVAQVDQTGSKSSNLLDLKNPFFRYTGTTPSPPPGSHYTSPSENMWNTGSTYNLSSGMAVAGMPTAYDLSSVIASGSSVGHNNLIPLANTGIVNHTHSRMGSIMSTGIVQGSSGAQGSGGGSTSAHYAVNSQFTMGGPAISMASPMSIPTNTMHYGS
Method: as §1, §2, §3

PRMT6 = PRMT6 (Homo sapiens, UniProt Q96LA8); assay: selectivity of YD1113/YD1290 on PRMT panel, PRMT6; conditions: vs YD1113
Sequence of PRMT6 (Q96LA8 whole entry, species assumed): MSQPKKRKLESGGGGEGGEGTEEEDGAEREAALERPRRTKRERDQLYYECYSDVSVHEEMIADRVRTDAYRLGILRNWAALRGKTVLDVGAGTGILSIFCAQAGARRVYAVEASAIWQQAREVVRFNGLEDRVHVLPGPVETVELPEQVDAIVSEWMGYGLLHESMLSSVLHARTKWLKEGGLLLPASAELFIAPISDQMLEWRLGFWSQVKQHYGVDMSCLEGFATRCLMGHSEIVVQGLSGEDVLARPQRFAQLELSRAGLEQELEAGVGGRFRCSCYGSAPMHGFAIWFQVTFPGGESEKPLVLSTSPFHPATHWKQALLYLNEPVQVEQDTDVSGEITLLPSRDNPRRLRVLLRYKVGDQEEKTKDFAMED
Method: as §1, §2, §3

PRMT8 = PRMT8 (Homo sapiens, UniProt Q9NR22); assay: selectivity of YD1113/YD1290 on PRMT panel, PRMT8; conditions: vs YD1113
Sequence of PRMT8 (Q9NR22 whole entry, species assumed): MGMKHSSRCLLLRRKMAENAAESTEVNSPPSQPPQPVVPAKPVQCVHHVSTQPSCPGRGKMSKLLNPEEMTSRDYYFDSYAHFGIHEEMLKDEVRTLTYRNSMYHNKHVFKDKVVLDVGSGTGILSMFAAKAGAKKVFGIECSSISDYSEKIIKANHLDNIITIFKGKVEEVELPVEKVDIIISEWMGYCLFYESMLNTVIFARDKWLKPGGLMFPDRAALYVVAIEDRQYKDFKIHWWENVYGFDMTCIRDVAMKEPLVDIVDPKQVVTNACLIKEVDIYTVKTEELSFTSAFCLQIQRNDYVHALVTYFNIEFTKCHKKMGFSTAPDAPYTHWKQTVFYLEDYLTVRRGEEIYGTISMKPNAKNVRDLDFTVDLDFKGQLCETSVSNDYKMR
Method: as §1, §2, §3

type I PRMTs = assay: inhibition of type I PRMTs (summary)
Method: as §1

PRMT1 [2] = biological target: T1, PRMT1; assay: inhibition mechanism study on PRMT1, SAHH-coupled fluorescence; conditions: role: inhibitor
Method: The inhibition mechanism of YD1290 was study on PRMT1 with the fluorescence-based SAHH-coupled assay. Varying concentrations of SAM (from 5 to 40 μM) with 4 μM fixed concentration of H4-21 or varying concentration of H4-21 (from 4 to 32 μM) with 5 μM fixed concentration of SAM were included in reactions at concentration of YD1290 ranging from 0.15 nM to 10 μM.
All the IC50 values were determined in triplicate. Fluorescence was monitored on a BMG CLARIOstar microplate reader with excitation 380 nm and emission 505 nm. Data were processed by using GraphPad Prism software 8.0.
To confirm the potent inhibition activities of YD1290 on type I PRMTs resulting from bisubstrate characteristics, its inhibition mechanism on PRMT1 was determined through the SAHH-coupled fluorescence-based assay.

SAHH = assay: selectivity, SAHH; conditions: 100 μM
Method: The effect of the inhibitors on the coupled enzyme, SAHH, was also evaluated. The assay was performed in a final well volume of 100 μL: 25 mM Tris (pH=7.5), 50 mM KCl, 0.01% Triton X-100, 0.1 μM SAHH, and 15 μM ThioGlo1. After incubation for 10 min with the compound, 0.5 μM SAH was added to initiate the reactions.
All experiments were performed in duplicate. Fluorescence was monitored on a BMG CLARIOstar microplate reader with excitation at 380 nm and emission at 505 nm.
To examine the selectivity, the inhibition of YD1290 on four inhouse methyltransferases, including protein N-terminal methyltransferase 1 (NTMT1), nicotinamide N-methyltransferase (NNMT), and two protein lysine methyltransferases PKMT (G9a and SETD7) were tested.

NTMT1 = biological target: T3, NTMT1 (Homo sapiens, UniProt Q9BV86); assay: selectivity, SAHH-coupled assay NTMT1; conditions: 100 μM
T3 construct: GPKRIA peptide as substrate
T3 sequence (Q9BV86 whole entry): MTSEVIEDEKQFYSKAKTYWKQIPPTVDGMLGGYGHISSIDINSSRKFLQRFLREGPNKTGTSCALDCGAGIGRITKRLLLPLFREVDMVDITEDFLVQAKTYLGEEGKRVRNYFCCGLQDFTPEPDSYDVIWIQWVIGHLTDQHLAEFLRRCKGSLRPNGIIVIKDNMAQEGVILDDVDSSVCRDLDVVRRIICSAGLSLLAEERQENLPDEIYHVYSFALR
Method: (§4) A fluorescence-based SAHH-coupled assay was applied to study the effect of the compound on methyltransferase activity of NTMT1, SETD7, G9a, NNMT, tbPRMT7 and SAHH. For NTMT1, the assay was performed in a final well volume of 100 μL: 25 mM Tris (pH=7.5), 50 mM KCl, 0.01% Triton X-100, 5 μM.
(§5) SAHH, 0.1 μM NTMT1, 3 μM AdoMet, and 10 μM ThioGlo4. After incubation for 10 min with the inhibitor, reactions were initiated by the addition of 0.5 μM GPKRIA peptide, and the reaction was monitored for 15 min. For SETD7, the assay was performed in a final well volume of 100 μL: 25 mM potassium phosphate buffer (pH=7.6), 0.01% Triton X-100, 5 μM SAHH, 1 μM SETD7, 2 μM AdoMet, and 10 μM ThioGlo1. After incubation for 10 min with the inhibitor, reactions were initiated by the addition of 90 μM H3-21 peptide, and the reaction was monitored for 15 min. […] After incubation for 10 min with the inhibitor, reactions were initiated by the addition of 10 μM nicotinamide, and the reaction was monitored for 18 min. […] After incubation for 10 min with the inhibitor, reactions were initiated by the addition of 60 μM H4-21 peptide, and the reaction was monitored for 15 min. […]
(§6) All experiments were performed in duplicate. Fluorescence was monitored on a BMG CLARIOstar microplate reader with excitation at 380 nm and emission at 505 nm. […]

SETD7 = biological target: T4, SETD7 (Homo sapiens, UniProt Q8WTS6); assay: selectivity, SAHH-coupled assay SETD7; conditions: 100 μM
T4 construct: H3-21 peptide as substrate
T4 sequence (Q8WTS6 whole entry): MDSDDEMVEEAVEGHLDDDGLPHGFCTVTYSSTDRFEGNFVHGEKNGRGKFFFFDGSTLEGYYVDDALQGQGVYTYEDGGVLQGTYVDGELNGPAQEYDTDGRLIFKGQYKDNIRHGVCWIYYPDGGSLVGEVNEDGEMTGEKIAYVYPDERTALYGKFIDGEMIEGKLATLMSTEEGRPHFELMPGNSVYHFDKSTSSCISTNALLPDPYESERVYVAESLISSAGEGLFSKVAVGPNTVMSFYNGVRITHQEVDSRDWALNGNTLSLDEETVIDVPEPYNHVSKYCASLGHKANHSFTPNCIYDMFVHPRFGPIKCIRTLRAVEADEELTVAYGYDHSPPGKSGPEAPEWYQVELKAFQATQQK
Method: as §4, §5, §6

G9a = G9a (Homo sapiens, UniProt Q96KQ7); assay: selectivity, SAHH-coupled assay G9a; conditions: 100 μM
Sequence of G9a (Q96KQ7 whole entry): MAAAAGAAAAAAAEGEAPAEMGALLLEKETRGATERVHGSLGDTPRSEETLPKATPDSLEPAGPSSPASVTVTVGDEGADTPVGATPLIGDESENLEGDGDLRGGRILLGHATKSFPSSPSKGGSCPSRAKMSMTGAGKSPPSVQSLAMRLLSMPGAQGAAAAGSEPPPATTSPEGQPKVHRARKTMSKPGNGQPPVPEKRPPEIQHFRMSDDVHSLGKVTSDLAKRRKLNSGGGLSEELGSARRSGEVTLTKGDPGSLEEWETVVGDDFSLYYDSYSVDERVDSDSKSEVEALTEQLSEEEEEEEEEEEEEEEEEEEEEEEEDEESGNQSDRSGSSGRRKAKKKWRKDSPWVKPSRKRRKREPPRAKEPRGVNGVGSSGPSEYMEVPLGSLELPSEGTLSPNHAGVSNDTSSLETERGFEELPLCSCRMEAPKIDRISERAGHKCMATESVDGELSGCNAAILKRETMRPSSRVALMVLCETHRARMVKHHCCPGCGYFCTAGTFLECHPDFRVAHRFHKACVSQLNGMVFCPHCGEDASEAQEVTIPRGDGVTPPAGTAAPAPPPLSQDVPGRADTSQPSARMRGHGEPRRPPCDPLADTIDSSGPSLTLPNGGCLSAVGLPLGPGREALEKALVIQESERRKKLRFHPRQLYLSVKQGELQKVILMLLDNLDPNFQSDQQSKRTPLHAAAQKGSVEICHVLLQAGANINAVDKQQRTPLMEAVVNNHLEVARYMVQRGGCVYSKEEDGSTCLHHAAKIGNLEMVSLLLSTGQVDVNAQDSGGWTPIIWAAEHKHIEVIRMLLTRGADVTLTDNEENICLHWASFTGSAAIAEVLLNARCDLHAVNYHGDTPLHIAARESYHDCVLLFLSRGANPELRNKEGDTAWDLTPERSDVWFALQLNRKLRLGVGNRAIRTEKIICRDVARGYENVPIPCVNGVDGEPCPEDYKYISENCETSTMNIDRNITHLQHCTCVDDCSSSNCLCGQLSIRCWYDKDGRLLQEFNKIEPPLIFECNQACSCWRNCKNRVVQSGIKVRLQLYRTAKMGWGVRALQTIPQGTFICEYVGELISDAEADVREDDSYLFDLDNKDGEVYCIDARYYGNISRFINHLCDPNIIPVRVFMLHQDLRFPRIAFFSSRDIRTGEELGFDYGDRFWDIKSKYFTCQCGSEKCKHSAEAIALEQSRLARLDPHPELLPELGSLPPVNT
Method: as §4, §5, §6

NNMT = biological target: T5, NNMT (Homo sapiens, UniProt P40261); assay: selectivity, SAHH-coupled assay NNMT; conditions: 100 μM
T5 construct: nicotinamide as substrate
T5 sequence (P40261 whole entry): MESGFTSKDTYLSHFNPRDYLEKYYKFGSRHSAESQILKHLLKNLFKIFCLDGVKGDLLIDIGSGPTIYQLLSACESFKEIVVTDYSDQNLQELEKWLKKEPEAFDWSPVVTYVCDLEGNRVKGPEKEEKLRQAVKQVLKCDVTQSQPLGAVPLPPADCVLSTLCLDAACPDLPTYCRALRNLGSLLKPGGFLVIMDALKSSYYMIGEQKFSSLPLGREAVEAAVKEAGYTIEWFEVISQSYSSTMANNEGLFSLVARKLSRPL
Method: as §4, §5, §6

PRMTs = assay: radioactivity assay, all tested PRMTs
Method: as §1, §3

T1 sequence (Q99873 whole entry, species assumed): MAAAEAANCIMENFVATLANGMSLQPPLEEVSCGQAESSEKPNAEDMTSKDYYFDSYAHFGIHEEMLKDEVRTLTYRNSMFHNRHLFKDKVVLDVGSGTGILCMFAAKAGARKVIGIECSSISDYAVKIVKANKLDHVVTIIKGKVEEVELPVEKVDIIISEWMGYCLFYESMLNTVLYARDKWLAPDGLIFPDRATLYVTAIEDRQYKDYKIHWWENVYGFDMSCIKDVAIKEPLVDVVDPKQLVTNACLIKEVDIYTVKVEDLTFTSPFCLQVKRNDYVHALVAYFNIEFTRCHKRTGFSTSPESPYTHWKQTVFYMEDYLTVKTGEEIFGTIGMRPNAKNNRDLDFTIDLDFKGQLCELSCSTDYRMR

fold potency to PRMT1 compared to YD1113 (PRMT1 [1]): > 80 fold
fold potency to PRMT3 compared to YD1113 (PRMT3): > 80 fold
PRMT4 activity (PRMT4; 1.5 nM, radioactivity assay): completely abolished PRMT4 activity
fold potency to PRMT4 compared to YD1113 (PRMT4; vs YD1113): > 80 fold
fold potency to PRMT6 compared to YD1113 (PRMT6): > 80 fold
fold potency to PRMT8 compared to YD1113 (PRMT8): > 80 fold
inhibition mechanism vs SAM, PRMT1 (PRMT1 [2]; SAM 5 to 40 μM, H4-21 4 μM fixed): SAM-site competitive inhibitor of PRMT1
SMILES: N=C(NCCCN(CCNC(=O)NCc1ccccc1)C[C@H]1O[C@@H](n2cnc3c(N)ncnc32)[C@H](O)[C@@H]1O)Nc1cccc(Br)c1 [YD1290]
IC50 (type I PRMTs): < 5 nM
inhibition mechanism vs peptide substrate, PRMT1 (PRMT1 [2]; H4-21 4 to 32 μM, SAM 5 μM fixed): slightly increased when the ratio of peptide/Km increased; also recorded: peptide-site competitive inhibitor of PRMT1
inhibition of SAHH (SAHH): did not display any significant inhibition
inhibition of NTMT1 (NTMT1): did not display any significant inhibition
inhibition of SETD7 (SETD7): did not display any significant inhibition
inhibition of G9a (G9a): did not display any significant inhibition
inhibition of NNMT (NNMT): did not display any significant inhibition
potency to all tested PRMTs (PRMTs): demonstrated potency to all tested PRMTs
